Measurements taken from PubChem BioAssay (NCI).
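Growth conditions: 96-well plates. Treatment: test compound, 48 hours, 5 concentrations. Analysis: linear interpolation between bracketing concentrations; unreached endpoints set to highest concentration. At the TGI there is no net growth.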

How the values were obtained:
Assay in all cases: NCI anticancer screen, dose series, 48 h
HL-60(TB) leukemia = tested on: HL-60(TB) leukemia
A498 renal = tested on: A498 renal
HCC-2998 colon = tested on: HCC-2998 colon
OVCAR-3 ovarian = tested on: OVCAR-3 ovarian
NCI-H522 lung = tested on: NCI-H522 lung
T-47D breast = tested on: T-47D breast
PC-3 prostate = tested on: PC-3 prostate
SN12C renal = tested on: SN12C renal
SW-620 colon = tested on: SW-620 colon
CCRF-CEM leukemia = tested on: CCRF-CEM leukemia

Row | Compound | TGI (HL-60(TB) leukemia) [µM] | TGI (A498 renal) [µM] | TGI (HCC-2998 colon) [µM] | TGI (OVCAR-3 ovarian) [µM] | TGI (NCI-H522 lung) [µM] | TGI (T-47D breast) [µM] | TGI (PC-3 prostate) [µM] | TGI (SN12C renal) [µM] | TGI (SW-620 colon) [µM] | TGI (CCRF-CEM leukemia) [µM]
1 | COc1ccc(OC)c(NC2=NCCO2)c1 | > 100 | > 100 | > 100 | > 100 | > 100 | > 100 | > 100 | > 100 | 28.2 | > 100
2 | C/C(=N/NC(=S)Nc1cccc(Cl)c1)c1ccccn1 | 0.5 | 7.56 | 17.5 | 12.3 | 2.41 | 1.05 | 15.1 | 7.04 | 17.9 | > 15.9
3 | O=C(N/N=C\c1cccs1)c1ccncc1 | > 100 | > 100 | > 100 | > 100 | > 100 | > 100 | > 100 | > 100 | > 100 | > 100
4 | Oc1cc(O)c2c(c1)O[C@H](c1cc(O)c(O)c(O)c1)[C@@H](O)C2 | 45.4 | > 100 | > 10 | 46.6 | 35.1 | 68.7 | 76.2 | 33 | 32.7 | 43.4
5 | COCCOC(C)C(=O)C(O)S(=O)(=O)O (stereo not given) | > 100 | > 100 | > 100 | > 100 | > 100 | > 100 | > 100 | > 100 | > 100 | > 100
6 | O=C1C(C(c2ccc([N+](=O)[O-])cc2)N2CCOCC2)=C(O)C(c2ccccc2)N1c1ccccc1 (stereo not given) | > 10 | > 10 | > 10 | > 10 | > 10 | > 10 | > 10 | > 10 | > 10 | > 10
7 | CC(=O)OC12CC(C(F)(F)F)(C(F)(F)F)OC1(OC(C)=O)CC(C(F)(F)F)(C(F)(F)F)O2 (stereo not given) | 11.3 | 8.57 | > 100 | > 100 | > 100 | 8.56 | > 100 | > 100 | > 100 | > 100
8 | COc1cc(S(=O)(=O)Nc2ccc(-c3csc(N4C(=O)C(Cl)C4c4cccc(Oc5ccccc5)c4)n3)cc2)ccc1Cl (stereo not given) | 41.7 | 64.8 | > 100 | > 100 | 3.22 | 41.9 | 30.8 | 30.2 | > 100 | > 100
9 | c1ccc(C(c2cccc3c2ccc2ccccc23)C(c2ccccc2)c2cccc3c2ccc2ccccc23)cc1 (stereo not given) | > 100 | > 100 | > 100 | > 100 | > 100 | > 100 | > 100 | > 100 | > 100 | > 100
10 | C/C(=N/NC(=S)N(C)C)c1ccccc1O | > 51.9 | 97.9 | > 100 | > 26.3 | > 100 | > 85.8 | > 100 | > 100 | > 100 | 21
11 | Nc1nc2c(c(-c3ccccc3Cl)n1)COC/C2=C\c1ccccc1Cl | 25.5 | 30.6 | 34.6 | 31.2 | 31 | 44.8 | 27.4 | 31.3 | 31.8 | 32.8
12 | COc1cc(NS(C)(=O)=O)ccc1NCc1cnc2ccc3[nH]cccc3c12 | 18.3 | 59.2 | 35.4 | 53.2 | 39.9 | 50.8 | 42.3 | 67.4 | > 92 | 59.5
13 | CCCCCCCCCC(O)CC(=O)c1c(O)cccc1O (stereo not given) | 57.3 | 88.5 | 26.8 | 41.9 | 37.9 | 71.5 | 36.4 | 63.9 | > 100 | > 100
14 | N#CCCN(CCC#N)c1ccc(/C=C2\SC(=S)NC2=O)cc1 | > 100 | > 100 | > 100 | > 100 | > 100 | > 100 | > 100 | > 100 | > 100 | > 100
15 | Nc1ncnc2c1ncn2C1OC(CO)C(O)C1NS(=O)(=O)c1ccccc1 (stereo not given) | > 100 | > 100 | > 100 | > 100 | > 100 | > 100 | > 100 | > 100 | > 100 | > 100
16 | COC(=O)[C@H]1[C@@H](O)[C@@]2(O)c3c(OC)cc(OC)cc3O[C@@]2(c2ccc3c(c2)OCO3)[C@@H]1c1ccccc1 | 0.763 | > 50 | 5.18 | 2.8 | 0.741 | > 10.8 | > 18 | 1.46 | > 22.2 | > 50
17 | CCNC(=O)NNc1ncnc2c1c(-c1ccc(Cl)cc1)cn2-c1ccc(C)cc1 | 34.7 | 30.6 | 31.3 | 33.6 | 38.3 | 49.6 | 38.6 | 30.3 | 45 | 43.1
18 | NC(=S)Nc1ccc2c(c1)oc1ccccc12 | > 100 | > 100 | > 100 | > 100 | > 100 | > 100 | > 100 | > 100 | > 100 | > 100
19 | Cc1nc2ccccc2c(=O)n1NC(=O)c1ccccc1[N+](=O)[O-] | > 100 | > 100 | > 100 | > 100 | > 100 | > 100 | > 100 | > 100 | > 100 | > 100
20 | N#C/C=c1/c2ccccc2n2nc3ccccc3c12 | > 100 | 70.3 | > 100 | > 100 | 38 | > 100 | > 100 | > 100 | > 100 | > 100
21 | C=C1C(=O)[C@]23C[C@H]1C[C@@H](O)[C@H]2[C@]1(COC3=O)[C@@H](OC(C)=O)CC[C@@](C)(COC(C)=O)[C@H]1C=O | 16.6 | > 50 | > 50 | > 50 | 14.6 | 25.4 | > 50 | > 50 | 18.7 | 15.1
22 | Cc1ccc(S(=O)(=O)/N=C2/N(C)CCCS2(=O)=O)cc1 | > 100 | > 100 | > 100 | > 100 | > 100 | > 100 | > 100 | > 100 | > 100 | > 100
23 | N#C/C(=C/n1c(=S)[nH]c2ccccc21)C(N)=O | 30.4 | > 100 | > 100 | > 100 | > 100 | > 100 | > 100 | > 100 | > 100 | > 100
24 | COc1ccc(C(=O)c2c(-c3ccccc3NC(=O)C(F)(F)F)[nH]c3ccccc23)cc1 | 13.6 | 4.7 | 9.11 | 8.67 | 22.8 | 9.05 | 17.3 | 28.3 | 16.7 | 15.2
25 | CC(=O)NNC(=S)/N=C\c1c(O)c2ccccc2oc1=O | > 100 | > 100 | > 100 | > 100 | > 100 | > 100 | > 100 | > 100 | > 100 | > 100
26 | COC1=CC(=O)c2c(cc(COP(N)(=O)N(CCCl)CCCl)n2C)C1=O (stereo not given) | 3.89 | 5.39 | 2.3 | 2.37 | 0.802 | 4.29 | 10.1 | 1.31 | 4.21 | 8
